The subject of this assay is coronary arteries of juvenile domestic swine. Put plainly: Stent implantation in porcine coronary artery model, morphometric analysis after 28 days. Format: in vivo. The following applies: BHT in copolymer stent coating. The source says:
The following are placed in the coronary arteries of juvenile domestic swine: (a) oversized bare metal stents, (b) EtO-sterilized, copolymer-coated, BHT-free stents, (c) electron-beam-sterilized, copolymer-coated, BHT-free stents, (d) electron-beam-sterilized, stents with coating containing 5% BHT and 95% copolymer, and (e) electron beam-sterilized, stents with coating containing 10% BHT and 90% copolymer. After 28 days, the stents are harvested from the animals and an examination of morphometric % restenosis and neointimal thickening area was conducted. Morphometric analysis is performed on one specimen from each stented segment in a blinded manner. Morphometry is completed using a PC based digital planimetry system. Morphometric % restenosis is determined by neointimal area÷internal elastic lamina (IEL) area×100; while neointimal area is determined by internal elastic lamina (IEL)−injured luminal area. The results are presented in the table to follow: Statistical methods are as follows: Data are presented as mean±S.D. Comparisons between the control (bare stent) and treated stents were made using unpaired t-test. Improvement in morphometic % restenosis and neointimal area, relative to bare stents, was […] considered to be statistically significant for values of p≦0.05.

With `Cc1cc(C(C)(C)C)c(O)c(C(C)(C)C)c1` [BHT, butylated hydroxytoluene], the stent biocompatibility entry was “enhances stent biocompatibility”.

(Values after US20050064011A1, “Implantable or insertable medical devices containing phenolic compound for inhibition of restenosis” (priority 2003, published 2005).)
